Assay results published in ChEMBL document CHEMBL5120826, “Effects of β-lapachone and β-nor-lapachone on multidrug efflux transporters and biofilms of Candida glabrata” (Bioorg Med Chem, 2022).
Values after ≈ are worked out from the molar mass of the structure shown. Active and inactive are the calls of the source. No cut-off for these calls is given here.

Columns and labels:
Nakaseomyces glabratus [1] = experiment: Antifungal activity against fluconazole resistant Candida glabrata 109 overexpressing CgCdr1p transporter assessed as reduction in fungal growth incubated for 48 hrs by checkboard assay based microplate reader analysis; type: functional
Nakaseomyces glabratus [2] = experiment: Additive antifungal activity against fluconazole resistant Candida glabrata 109 overexpressing CgCdr1p transporter assessed as reduction in fungal growth incubated for 48 hrs in presence of lapachone by checkboard assay based microplate reader analysis; type: functional
Saccharomyces cerevisiae [3] = experiment: Induction of ROS generation in fluconazole resistant Saccharomyces cerevisiae overexpressing CgCdr1p transporter assessed as fold increase in ROS level incubated for 90 mins by DCFH-DA dye based fluorescence assay; type: functional; conditions: 1.5 h
Saccharomyces cerevisiae [4] = experiment: Antifungal activity against fluconazole resistant Saccharomyces cerevisiae overexpressing CgCdr1p transporter assessed as reduction in fungal growth incubated for 48 hrs in presence of fluconazole by serial dilution method; type: functional, organism-based
Nakaseomyces glabratus [5] = experiment: Indifferent antifungal activity against fluconazole resistant Candida glabrata 109 overexpressing CgCdr1p transporter assessed as fractional inhibitory concentration index incubated for 48 hrs by checkboard assay based microplate reader analysis; type: functional
Nakaseomyces glabratus [6] = experiment: Induction of morphological changes in fluconazole resistant Candida glabrata 109 overexpressing CgCdr1p transporter assessed as decrease in cell-cell adhesion at 200 ug/ml by calcofluor white dye based confocal laser scanning microscopy; type: functional, organism-based; conditions: dose 200.0 µg/ml
Nakaseomyces glabratus [7] = experiment: Induction of morphological changes in fluconazole resistant Candida glabrata 109 overexpressing CgCdr1p transporter assessed as decrease in biofilm thickness at 200 ug/ml by calcofluor white dye based confocal laser scanning microscopy; type: functional, organism-based; conditions: dose 200.0 µg/ml
Saccharomyces cerevisiae [8] = experiment: Synergistic antifungal activity against fluconazole resistant Saccharomyces cerevisiae overexpressing CgCdr2p transporter assessed as fractional inhibitory concentration index incubated for 48 hrs by checkboard assay based microplate reader analysis; type: functional
Nakaseomyces glabratus [9] = experiment: Indifferent antifungal activity against fluconazole sensitive Candida glabrata ATCC 2001 assessed as fractional inhibitory concentration incubated for 48 hrs in presence of lapachone by checkboard assay based microplate reader analysis; type: functional
Nakaseomyces glabratus [10] = experiment: Indifferent antifungal activity against fluconazole sensitive Candida glabrata ATCC 2001 assessed as fractional inhibitory concentration incubated for 48 hrs in presence of fluconazole by checkboard assay based microplate reader analysis; type: functional
Nakaseomyces glabratus [11] = experiment: Indifferent antifungal activity against fluconazole resistant Candida glabrata 109 overexpressing CgCdr1p transporter assessed as reduction in fungal growth incubated for 48 hrs by checkboard assay based microplate reader analysis; type: functional
Nakaseomyces glabratus [12] = experiment: Indifferent antifungal activity against fluconazole sensitive Candida glabrata ATCC 2001 assessed as reduction in fungal growth incubated for 48 hrs in presence of lapachone by checkboard assay based microplate reader analysis; type: functional
Nakaseomyces glabratus [13] = experiment: Effect on efflux pump function in fluconazole resistant Candida glabrata 109 overexpressing CgCdr1p transporter assessed as accumulation of Nile red fluorescence incubated for 1 hr by fluorescence based assay; type: functional
Nakaseomyces glabratus [14] = experiment: Antibiofilm activity against fluconazole sensitive Candida glabrata ATCC 2001 assessed as inhibition of biofilm formation at 200 ug/ml incubated for 48 hrs; type: functional
Saccharomyces cerevisiae [15] = experiment: Antifungal activity against fluconazole resistant Saccharomyces cerevisiae overexpressing CgCdr1p transporter assessed as reduction in fungal growth incubated for 48 hrs by checkboard assay based microplate reader analysis; type: functional
Nakaseomyces glabratus [16] = experiment: Additive antifungal activity against fluconazole resistant Candida glabrata 109 overexpressing CgCdr1p transporter assessed as reduction in fungal growth incubated for 48 hrs in presence of fluconazole by checkboard assay based microplate reader analysis; type: functional
Nakaseomyces glabratus [17] = experiment: Additive antifungal activity against fluconazole resistant Candida glabrata 109 overexpressing CgCdr1p transporter assessed as fractional inhibitory concentration incubated for 48 hrs in presence of fluconazole by checkboard assay based microplate reader analysis; type: functional
Nakaseomyces glabratus [18] = experiment: Indifferent antifungal activity against fluconazole sensitive Candida glabrata ATCC 2001 assessed as fractional inhibitory concentration index incubated for 48 hrs by checkboard assay based microplate reader analysis; type: functional
Nakaseomyces glabratus [19] = experiment: Induction of ROS generation in fluconazole resistant Candida glabrata 109 overexpressing CgCdr1p transporter assessed as fold increase in ROS production at 200 ug/ml incubated for 48 hrs by DCFH-DA dye based fluorescence assay; type: functional
Nakaseomyces glabratus [20] = experiment: Additive antifungal activity against fluconazole resistant Candida glabrata 109 overexpressing CgCdr1p transporter assessed as fractional inhibitory concentration incubated for 48 hrs in presence of lapachone by checkboard assay based microplate reader analysis; type: functional
Saccharomyces cerevisiae [21] = experiment: Antifungal activity against fluconazole resistant Saccharomyces cerevisiae overexpressing CgCdr2p transporter assessed as reduction in fungal growth incubated for 48 hrs by checkboard assay based microplate reader analysis; type: functional
Nakaseomyces glabratus [22] = experiment: Indifferent antifungal activity against fluconazole resistant Candida glabrata 109 overexpressing CgCdr1p transporter assessed as reduction in fungal growth incubated for 48 hrs in presence of lapachone by checkboard assay based microplate reader analysis; type: functional
[23] = Inhibition of fluconazole sensitive Candida glabrata ATCC 2001 […] cell adhesion to polystyrene at 200 ug/ml incubated for 90 mins by MTT assay; type: functional; conditions: Nakaseomyces glabratus, ATCC 2001, 1.5 h
Saccharomyces cerevisiae [24] = experiment: Effect on efflux pump function in fluconazole resistant Saccharomyces cerevisiae overexpressing CgCdr1p transporter assessed as accumulation of Nile red fluorescence incubated for 1 hr by fluorescence based assay; type: functional
Nakaseomyces glabratus [25] = experiment: Induction of ROS generation in fluconazole resistant Candida glabrata 109 overexpressing CgCdr1p assessed as fold increase in ROS level incubated for 90 mins by DCFH-DA dye based fluorescence assay; type: functional; conditions: 1.5 h
Nakaseomyces glabratus [26] = experiment: Antifungal activity against fluconazole sensitive Candida glabrata ATCC 2001 assessed as reduction in fungal growth incubated for 48 hrs by checkboard assay based microplate reader analysis; type: functional
Nakaseomyces glabratus [27] = experiment: Antibiofilm activity against fluconazole sensitive Candida glabrata ATCC 2001 assessed as reduction in metabolic activity up to 200 ug/ml incubated for 48 hrs; type: functional; parameters: scale not given: the % may be the effect or the level left; conditions: dose <= 200 µg/ml, up to 200 µg/mL
Saccharomyces cerevisiae [28] = experiment: Induction of ROS generation in fluconazole resistant Saccharomyces cerevisiae overexpressing CgCdr2p transporter assessed as fold increase in ROS level incubated for 90 mins by DCFH-DA dye based fluorescence assay; type: functional; conditions: 1.5 h
Nakaseomyces glabratus [29] = experiment: Additive antifungal activity against fluconazole resistant Candida glabrata 109 overexpressing CgCdr1p transporter assessed as fractional inhibitory concentration index incubated for 48 hrs by checkboard assay based microplate reader analysis; type: functional
Nakaseomyces glabratus [30] = experiment: Antibiofilm activity against fluconazole resistant Candida glabrata 109 overexpressing CgCdr1p transporter assessed as reduction in metabolic activity at highest concentration incubated for 48 hrs; type: functional; parameters: scale not given: the % may be the effect or the level left
Saccharomyces cerevisiae [31] = experiment: Inhibition of fluconazole resistant Saccharomyces cerevisiae overexpressing CgCdr1p transporter ATPase activity assessed as reduction in inorganic phosphate release in presence of ATP incubated for 1 hr by Fiske and Sub barrow method; conditions: concentration not given here
Saccharomyces cerevisiae [32] = experiment: Antifungal activity against fluconazole resistant Saccharomyces cerevisiae overexpressing CgCdr1p transporter assessed as reduction in fungal growth at lower concentration incubated for 48 hrs by serial dilution method; type: functional, organism-based
Nakaseomyces glabratus [33] = experiment: Indifferent antifungal activity against fluconazole sensitive Candida glabrata ATCC 2001 assessed as reduction in fungal growth incubated for 48 hrs in presence of fluconazole by checkboard assay based microplate reader analysis; type: functional
Saccharomyces cerevisiae [34] = experiment: Antifungal activity against fluconazole resistant Saccharomyces cerevisiae overexpressing CgCdr2p transporter assessed as reduction in fungal growth incubated for 48 hrs in presence of fluconazole by serial dilution method; type: functional, organism-based

Structure (SMILES)	MIC (Nakaseomyces glabratus [1]) [µg/mL]	MIC (Nakaseomyces glabratus [2]) [µg/mL]	fold change (FC) (Saccharomyces cerevisiae [3])	Activity (Saccharomyces cerevisiae [4])	fractional inhibitory concentration index (FICI) (Nakaseomyces glabratus [5])	Activity (Nakaseomyces glabratus [6])	Activity (Nakaseomyces glabratus [7])	fractional inhibitory concentration index (FICI) (Saccharomyces cerevisiae [8])	FIC (Nakaseomyces glabratus [9]) [µg/mL]	FIC (Nakaseomyces glabratus [10]) [µg/mL]	MIC (Nakaseomyces glabratus [11]) [µg/mL]	MIC (Nakaseomyces glabratus [12]) [µg/mL]	Activity (Nakaseomyces glabratus [13]) [%]	inhibition at 200 µg/mL (Nakaseomyces glabratus [14]) [%]	MIC (Saccharomyces cerevisiae [15]) [µg/mL]	MIC (Nakaseomyces glabratus [16]) [µg/mL]	FIC (Nakaseomyces glabratus [17]) [µg/mL]	fractional inhibitory concentration index (FICI) (Nakaseomyces glabratus [18])	FIC (Nakaseomyces glabratus [20]) [µg/mL]	MIC (Saccharomyces cerevisiae [21]) [µg/mL]	also measured
CC1(C)CCC2=C(O1)c1ccccc1C(=O)C2=O [LAPACHONE]	25 (≈ 103 µM)	12.5	3	Active	2	Active	Active	0.31	1	1	> 200	12.5	35	95	100 (≈ 413 µM)	31.2	0.125	2	0.5	25 (≈ 103 µM)	fold change (FC) (Nakaseomyces glabratus [19]; dose 200 µg/ml): 16; MIC (Nakaseomyces glabratus [22]): > 200 µg/mL; inhibition at 200 µg/mL [23]: 55%; Activity (Saccharomyces cerevisiae [24]): 100%; fold change (FC) (Nakaseomyces glabratus [25]): 5; MIC (Nakaseomyces glabratus [26]): 12.5 µg/mL (≈ 51.6 µM); Activity (Nakaseomyces glabratus [27]): 93%; fold change (FC) (Saccharomyces cerevisiae [28]): 3; fractional inhibitory concentration index (FICI) (Nakaseomyces glabratus [29]): 0.625; Activity (Nakaseomyces glabratus [30]): 88%; inhibition (Saccharomyces cerevisiae [31]): 76%; Activity (Saccharomyces cerevisiae [32]): Active; MIC (Nakaseomyces glabratus [33]): 15.6 µg/mL; Activity (Saccharomyces cerevisiae [34]): Active
CC1(C)CC2=C(O1)c1ccccc1C(=O)C2=O [NOR-BETA-LAPACHONE]	100 (≈ 438 µM)	50	3	Active	2	Active	Active	0.37	1	1	> 200	100	100	70	50 (≈ 219 µM)	31.2	0.125	2	0.5	25 (≈ 110 µM)	Activity (Nakaseomyces glabratus [19]; dose 200.0 µg/ml): Active; MIC (Nakaseomyces glabratus [22]): > 200 µg/mL; inhibition at 200 µg/mL [23]: 28%; Activity (Saccharomyces cerevisiae [24]): 100%; fold change (FC) (Nakaseomyces glabratus [25]): 5; MIC (Nakaseomyces glabratus [26]): 15.6 µg/mL (≈ 68.3 µM); Activity (Nakaseomyces glabratus [27]): 81%; fold change (FC) (Saccharomyces cerevisiae [28]): 3; fractional inhibitory concentration index (FICI) (Nakaseomyces glabratus [29]): 0.625; Activity (Nakaseomyces glabratus [30]): 46%; inhibition (Saccharomyces cerevisiae [31]): 25%; Activity (Saccharomyces cerevisiae [32]): Active; MIC (Nakaseomyces glabratus [33]): 15.6 µg/mL; Activity (Saccharomyces cerevisiae [34]): Active
